From BindingDB's records for patent US8962648 (Oncotherapy Science, 2015)
pIC50: −log10 of the molar value. “And” between values parts separate entries of the source, which are not always exact repeats. Identical values can stand only once.

Target: T1, Lymphokine-activated killer T-cell-originated protein kinase (Homo sapiens, UniProt Q96KB5)
T1 sequence (Q96KB5 whole entry): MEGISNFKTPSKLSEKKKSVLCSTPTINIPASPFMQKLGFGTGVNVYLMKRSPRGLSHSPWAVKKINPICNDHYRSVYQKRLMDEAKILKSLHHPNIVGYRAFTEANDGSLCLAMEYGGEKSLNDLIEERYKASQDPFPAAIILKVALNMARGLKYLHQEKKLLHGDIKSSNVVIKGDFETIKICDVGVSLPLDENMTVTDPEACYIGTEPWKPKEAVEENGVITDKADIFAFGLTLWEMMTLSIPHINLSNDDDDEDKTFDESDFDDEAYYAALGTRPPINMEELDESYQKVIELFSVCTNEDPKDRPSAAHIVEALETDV
Assay: Kinase Assay
Details: pH 7.4; 25 °C
Procedure: PBK activity was determined in the presence or absence of compounds using fluorescein isothiocyanate-labeled (FITC-labeled) histone H3 peptide as a substrate. […] The serially diluted compounds, 0.8 ng/micro-L PBK (Carna Biosciences) and 100 nM FITC-labeled histone H3 peptide were reacted in a reaction buffer (20 mM HEPES, 0.01% Tween-20, 0.3 mM MgCl2, 2 mM dithiothreitol, 50 micro-M ATP, pH 7.4) at room temperature for 1 hour. The reaction was stopped by the addition of three fold assay volume of progressive binding solution. Following 0.5 hour incubation at room temperature.

| Compound | pIC50 |
| --- | --- |
| N[C@H]1CCN(c2ccc3[nH]c(=O)c4sc(-c5ccc(O)cc5)cc4c3c2)C1 [US8962648, 51] | 7.11 |
| O=c1[nH]c2ccc(O)c(-c3ccc4cn[nH]c4c3)c2c2ccsc12 [US8962648, 61] | 8.46 |
| NS(=O)(=O)c1ccc(-c2c(O)ccc3[nH]c(=O)c4sccc4c23)cc1 [US8962648, 65] | 8.74 |
| NCc1ccc(-c2c(O)ccc3[nH]c(=O)c4sccc4c23)cc1 [US8962648, 73] | 9.20 and 9.42 |
| CS(=O)(=O)Nc1ccc(-c2c(O)ccc3[nH]c(=O)c4sccc4c23)cc1 [US8962648, 77] | 8.59 |
| N#CCc1ccc(-c2c(O)ccc3[nH]c(=O)c4sccc4c23)cc1 [US8962648, 81] | 7.92 |
| O=c1[nH]c2ccc(O)c(C3=CCNCC3)c2c2ccsc12 [US8962648, 84] | 9.11 |
| CN(C)CCc1ccc(-c2c(O)ccc3[nH]c(=O)c4sccc4c23)cc1 [US8962648, 93] | 8.27 |
| Cc1cc2c(s1)c(=O)[nH]c1ccc(O)c(-c3ccc(CN)cc3)c12 [US8962648, 95] | 8.36 |
| CS(=O)(=O)N1CCN(c2ccc(-c3c(O)ccc4[nH]c(=O)c5sccc5c34)cc2)CC1 [US8962648, 112] | 7.92 |
| COc1ccc2[nH]c(=O)c3sccc3c2c1-c1ccc(CN2CCC(CNC(=O)OC(C)(C)C)CC2)cc1 [US8962648, 139] | 8.03 |
| CCN(CC)CCNCCCOc1ccc(-c2c(OC)ccc3[nH]c(=O)c4sccc4c23)cc1 [US8962648, 145] | 7.33 |
| COc1ccc2[nH]c(=O)c3sccc3c2c1/C=C/CN1CCC(N)CC1 [US8962648, 152] | 7.51 |
| COc1ccc2[nH]c(=O)c3sccc3c2c1-c1ccc(CN(C)C)cc1 [US8962648, 164] | 7.96 |
| CN(C)Cc1ccc(-c2c(O)ccc3[nH]c(=O)c4sccc4c23)cc1 [US8962648, 165] | 8.16 |
| COc1ccc2[nH]c(=O)c3sccc3c2c1-c1ccc(CCN)cc1 [US8962648, 169] | 7.66 |
| NCCc1ccc(-c2c(O)ccc3[nH]c(=O)c4sccc4c23)cc1 [US8962648, 176] | 8.92 and 8.96 |
| CCN(CC)Cc1ccc(-c2c(O)ccc3[nH]c(=O)c4sccc4c23)cc1 [US8962648, 184] | 8.11 |
| CNCc1ccc(-c2c(O)ccc3[nH]c(=O)c4sccc4c23)cc1 [US8962648, 187] | 9.05 |
| CNCc1ccc(-c2c(OC)ccc3[nH]c(=O)c4sccc4c23)cc1 [US8962648, 188] | 8.11 |

| Compound | pIC50 |
| --- | --- |
| CC(c1ccc(-c2c(O)ccc3[nH]c(=O)c4sccc4c23)cc1)N(C)C (stereo not given) [US8962648, 192] | 8.80 and 8.72 |
| CC(c1ccc(-c2c(O)ccc3[nH]c(=O)c4sccc4c23)cc1)N1CCCC1 (stereo not given) [US8962648, 194] | 8.55 |
| CC(N)c1ccc(-c2c(O)ccc3[nH]c(=O)c4sccc4c23)cc1 (stereo not given) [US8962648, 195] | 9.14 |
| CCN(CC)C(C)c1ccc(-c2c(O)ccc3[nH]c(=O)c4sccc4c23)cc1 (stereo not given) [US8962648, 196] | 8.35 |
| O=c1[nH]c2ccc(O)c(-c3ccc(S(=O)(=O)NCCBr)cc3)c2c2ccsc12 [US8962648, 210] | 7.95 |
| CS(=O)(=O)NCc1ccc(-c2c(O)ccc3[nH]c(=O)c4sccc4c23)cc1 [US8962648, 212] | 8.26 |
| COc1ccc2[nH]c(=O)c3sccc3c2c1-c1ccc(C(C)N2CCCC2)cc1 (stereo not given) [US8962648, 216] | 7.68 |
| Nc1ccc(-c2c(O)ccc3[nH]c(=O)c4sccc4c23)cc1O [US8962648, 217] | 8.64 |
| CC(C)NCc1ccc(-c2c(O)ccc3[nH]c(=O)c4sccc4c23)cc1 [US8962648, 229] | 8.38 |
| COc1ccc2[nH]c(=O)c3sccc3c2c1-c1ccc([C@H](C)N)cc1 [US8962648, 232] | 8.13 |
| C[C@H](N)c1ccc(-c2c(O)ccc3[nH]c(=O)c4sccc4c23)cc1 [US8962648, 233] | 9.09 |
| NCC1CCN(Cc2ccc(-c3c(O)ccc4[nH]c(=O)c5sccc5c34)cc2F)CC1 [US8962648, 235] | 9.24 |
| Cc1cc(-c2c(O)ccc3[nH]c(=O)c4sccc4c23)ccc1NS(C)(=O)=O [US8962648, 254] | 8.52 |
| NCc1ccc(-c2c(O)cc(F)c3[nH]c(=O)c4sccc4c23)cc1 [US8962648, 256] | 8.60 |
| COc1cc(F)c2[nH]c(=O)c3sccc3c2c1-c1ccc(CN)cc1 [US8962648, 257] | 7.59 |
| N#CCc1ccc(-c2c(O)ccc3[nH]c(=O)c4sccc4c23)cc1F [US8962648, 261] | 7.82 |
| CC(c1ccc(-c2c(O)ccc3[nH]c(=O)c4sccc4c23)cc1)N1CCCCC1 (stereo not given) [US8962648, 262] | 8.37 |
| COc1ccc2[nH]c(=O)c3sccc3c2c1-c1ccc(CCN)c(F)c1 [US8962648, 265] | 8.42 |
| NCc1ccc(-c2c(O)ccc3[nH]c(=O)c4sccc4c23)s1 [US8962648, 266] | 9.11 |
| CCNCc1ccc(-c2c(O)ccc3[nH]c(=O)c4sccc4c23)cc1 [US8962648, 267] | 8.70 |

| Compound | pIC50 |
| --- | --- |
| CCNCc1ccc(-c2c(OC)ccc3[nH]c(=O)c4sccc4c23)cc1 [US8962648, 269] | 8.22 |
| NCc1ccc(-c2c(O)cc(Br)c3[nH]c(=O)c4sccc4c23)cc1 [US8962648, 270] | 7.51 |
| C[C@H](c1ccc(-c2c(O)ccc3[nH]c(=O)c4sccc4c23)cc1)N(C)C [US8962648, 272] | 9.06 |
| NCCCc1ccc(-c2c(O)ccc3[nH]c(=O)c4sccc4c23)cc1 [US8962648, 273] | 9.13 |
| COc1ccc2[nH]c(=O)c3sccc3c2c1-c1ccc([C@@H](C)N)cc1 [US8962648, 274] | 8.42 |
| C[C@@H](N)c1ccc(-c2c(O)ccc3[nH]c(=O)c4sccc4c23)cc1 [US8962648, 275] | 9.27 |
| NCCc1ccc(-c2c(O)ccc3[nH]c(=O)c4sccc4c23)cc1F [US8962648, 276] | 9.30 |
| CC(C)(CN)c1ccc(-c2c(O)ccc3[nH]c(=O)c4sccc4c23)cc1 [US8962648, 277] | 9.17 |
| O=c1[nH]c2ccc(O)c(-c3ccc(CN4CCC(O)C4)c(F)c3)c2c2ccsc12 (stereo not given) [US8962648, 278] | 9.01 |
| N#CCCc1ccc(-c2c(O)ccc3[nH]c(=O)c4sccc4c23)cc1 [US8962648, 290] | 8.49 |
| CC(=O)c1ccc(-c2c(O)ccc3[nH]c(=O)c4sccc4c23)cc1 [US8962648, 296] | 7.64 |
| O=c1[nH]c2ccc(O)c(-c3ccc(S(=O)(=O)NCCBr)c(F)c3)c2c2ccsc12 [US8962648, 297] | 7.89 |
| CN(C)C1CCCN(CCCc2c(O)ccc3[nH]c(=O)c4sccc4c23)C1 (stereo not given) [US8962648, 298] | 7.08 |
| C[C@@H](NS(C)(=O)=O)c1ccc(-c2c(O)ccc3[nH]c(=O)c4sccc4c23)cc1 [US8962648, 301] | 8.49 |
| CN(C)S(=O)(=O)c1ccc(-c2c(O)ccc3[nH]c(=O)c4sccc4c23)cc1 [US8962648, 304] | 7.35 |
| CN(C)CC(C)(C)c1ccc(-c2c(O)ccc3[nH]c(=O)c4sccc4c23)cc1 [US8962648, 308] | 8.55 |
| CC(O)c1ccc(-c2c(O)ccc3[nH]c(=O)c4sccc4c23)cc1 (stereo not given) [US8962648, 313] | 8.70 |
| CC(NC1CCCC1)c1ccc(-c2c(O)ccc3[nH]c(=O)c4sccc4c23)cc1 (stereo not given) [US8962648, 314] | 8.55 |
| CC(C)(N)c1ccc(-c2c(O)ccc3[nH]c(=O)c4sccc4c23)cc1 [US8962648, 319] | 9.37 |
| N#Cc1ccc2[nH]c(=O)c3sccc3c2c1-c1ccc(CN)cc1 [US8962648, 326] | 7.89 |
